Consider five compounds from patent publication US20080176898A1, “Phenyl Acetamides” (Bayer HealthCare AG, priority 2004, published 2008).

The IC50 is the concentration needed to halve the response being measured.

Bounds are passed on as bounds.

The target of one test is T1, human CysLT2 receptor (Homo sapiens, UniProt Q9NS75).
T1 construct: expressed in transfected cells; host or cells: CHO K1 cells constitutively expressing aequorin
T1 sequence (Q9NS75 1-346): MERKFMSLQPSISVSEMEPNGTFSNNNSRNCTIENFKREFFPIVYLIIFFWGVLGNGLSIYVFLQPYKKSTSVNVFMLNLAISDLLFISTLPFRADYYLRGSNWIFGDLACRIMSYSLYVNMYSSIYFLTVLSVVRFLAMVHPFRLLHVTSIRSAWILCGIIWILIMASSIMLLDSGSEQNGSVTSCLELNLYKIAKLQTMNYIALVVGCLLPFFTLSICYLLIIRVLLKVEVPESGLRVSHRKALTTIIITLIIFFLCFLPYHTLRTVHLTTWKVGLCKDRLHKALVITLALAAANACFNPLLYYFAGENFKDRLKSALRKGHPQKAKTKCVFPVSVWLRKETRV
The test can be described thus: Cellular in vitro test to determine the CysLT2 activity (aequorin luminescence, CHO K1 cells). The format is cell-based. The settings on record: recombinant CHO K1 cells with aequorin and human CysLT2 receptor; antagonism of LTD4 (3×10^−8 M) induced calcium release; 15 minutes preincubation. An excerpt: 1. Cellular In Vitro Test to Determine the CysLT2 Activity
A recombinant cell line is used to identify antagonists of the human cysteinyl-leukotriene 2 receptor (CysLT2R) and to quantify the activity of the substances described herein. The cell is originally derived from a hamster ovary epithelial cell (Chinese Hamster Ovary, CHO K1, ATCC: American Type Culture Collection, Manassas, Va. 20108, USA). The test cell line constitutively expresses the calcium-sensitive photoprotein aequorin which, after reconstitution with the cofactor coelenterazine, emits light when the cytoplasmic calcium concentration is increased (Rizzuto R, Simpson A W, Brini M, Pozzan T.; Nature 358 (1992) 325-327). The cell is additionally stably transfected with the human CysLT2 receptor (Heise et.al., JBC 275 (2000) 30531-30536). The resulting CysLT2R test cell responds to stimulation of the recombinant CysLT2 receptor (agonists: leukotriene D4 (LTD4) and leukotriene C4 (LTC4)) with an intracellular release of calcium ions, which can be quantified through the resulting aequorin luminescence with a suitable luminometer (Milligan G, Marshall F, Rees S, Trends in Pharmacological Sciences 17 (1996) 235-237). Preincubation with antagonists of the CysLT2 receptor reduces the calcium release induced by the agonists LTD4 and LTC4 and thus the measured amount of light.
(§1) Test procedure: The cells are plated out two days before the test in culture medium (DMEM/F12 with Glutamax, Gibco Cat. #61965-026; 10% FCS, Gibco Cat. #10270-106; 1.4 mM sodium pyruvate, Gibco Cat. #11360-039; 1.8 mM sodium bicarbonate, Gibco Cat. #25080-060; 10 mM HEPES, Gibco Cat. #15290-026; now belongs to Invitrogen GmbH, 76131 Karlsruhe) in 384-(or 1536-)well microtiter plates and kept in a cell incubator (96% humidity, 5% v/v CO2, 37° C.). On the day of the test, the culture medium is replaced by Tyrode solution (in mM: 140 NaCl, 5 KCl, 1 MgCl2, 2 CaCl2, 20 glucose, 20 HEPES) which additionally contains the cofactor coelenterazine (50 μM), and the microtiter plate is then incubated for a further 34 hours. 15 minutes after the test substances have been transferred into the wells of the microtiter plate, the resulting light signal is measured after addition of the LTD4 (3×10^−8 M) in the luminometer.

In a further test the target is T2, human CysLT1 receptor (Homo sapiens, UniProt Q9Y271).
T2 construct: expressed in transfected cells; host or cells: CHO K1 cells constitutively expressing aequorin
T2 sequence (Q9Y271 1-337): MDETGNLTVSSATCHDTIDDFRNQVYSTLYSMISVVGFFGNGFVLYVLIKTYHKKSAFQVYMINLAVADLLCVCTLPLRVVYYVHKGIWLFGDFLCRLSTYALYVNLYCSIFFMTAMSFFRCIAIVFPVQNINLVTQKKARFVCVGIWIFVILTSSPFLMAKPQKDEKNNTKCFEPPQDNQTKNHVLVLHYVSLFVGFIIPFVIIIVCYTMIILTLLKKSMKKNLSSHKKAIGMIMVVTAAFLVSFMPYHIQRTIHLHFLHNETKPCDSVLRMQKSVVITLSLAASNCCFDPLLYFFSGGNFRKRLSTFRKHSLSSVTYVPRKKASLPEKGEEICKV
The test can be described thus: Cellular in vitro test to determine the CysLT1 activity (aequorin luminescence, CHO K1 cells). The format is cell-based. As to conditions: recombinant CHO K1 cells with aequorin and human CysLT1 receptor; antagonism of LTD4 (3×10^−9 M) induced calcium release; 15 minutes preincubation.
Source text: 2. Cellular In Vitro Test to Determine the CysLT1 Activity
A recombinant cell line is used to identify antagonists of the human cysteinyl-leukotriene 1 receptor (CysLT1R) and to quantify the activity of the substances described herein. The cell is originally derived from a hamster ovary epithelial cell (Chinese Hamster Ovary, CHO K1, ATCC: American Type Culture Collection, Manassas, Va. 20108, USA). The test cell line constitutively expresses the calcium-sensitive photoprotein aequorin which, after reconstitution with the cofactor coelenterazine, emits light when the cytoplasmic calcium concentration is increased (Rizzuto R, Simpson A W, Brini M, Pozzan T.; Nature 358 (1992) 325-327). The cell is additionally stably transfected with the human CysLT1 receptor (Lynch et al., Nature 399 (1999) 789-793). The resulting CysLT1R test cell responds to stimulation of the recombinant CysLT1 receptor (agonist: leukotriene D4 (LTD4)) with an intracellular release of calcium ions, which can be quantified through the resulting aequorin luminescence with a suitable luminometer (Milligan G, Marshall F, Rees S, Trends in Pharmacological Sciences 17 (1996) 235-237). Preincubation with antagonists of the CysLT1 receptor reduces the calcium release induced by the agonist LTD4 and thus the measured amount of light.
as §1, with “384- (or” for “384-(or”, “3-4” for “34”, “LID4 (3×10^−9” for “LTD4 (3×10^−8”

Consider `O=C(O)c1ccc(OCCCc2ccc(OCCCCOC3CCCCC3)cc2)c(CC(=O)N2CCCC(C(=O)O)C2)c1` (stereo not shown) [Example 25, 1-{[5-Carboxy-2-(3-{4-[4-(cyclohexyloxy)butoxy]phenyl}propoxy)phenyl]acetyl}piperidine-3-carboxylic acid], for which the half-maximal inhibitory concentration (IC50) at human CysLT2 receptor was 45 nM; at human CysLT1 receptor, greater than 10000 nM.

`O=C(O)CNC(=O)Cc1cc(C(=O)O)ccc1OCCCc1ccc(OCCCC2CCCCC2)cc1` [Example 45, 3-{2-[(Carboxymethyl)amino]-2-oxoethyl}-4-{3-[4-(3-cyclohexylpropoxy)phenyl]propoxy}-benzoic acid]: the half-maximal inhibitory concentration (IC50) on human CysLT2 receptor was 75 nM; at human CysLT1 receptor it was greater than 3000 nM.

Take `O=C(O)c1ccc(OCCCc2ccc(OCCCC3CCCCC3)cc2)c(CC(=O)N2CCC(C(=O)O)CC2)c1` [Example 33, 1-[(5-Carboxy-2-{3-[4-(3-cyclohexylpropoxy)phenyl]propoxy}phenyl)acetyl]piperidine-4-carboxylic acid]: the results for the half-inhibitory concentration (IC50) on human CysLT2 receptor and on human CysLT1 receptor were 70 nM and greater than 3000 nM, respectively.

As to `O=C(O)CCCNC(=O)Cc1cc(C(=O)O)ccc1OCCCc1ccc(OCCCC2CCCCC2)cc1` [Example 31, 3-{2-[(3-Carboxypropyl)amino]-2-oxoethyl}-4-{3-[4-(3-cyclohexylpropoxy)phenyl]propoxy}-benzoic acid], the 50% inhibitory concentration (IC50) is 45 nM on human CysLT2 receptor and greater than 10000 nM on human CysLT1 receptor.

For the compound `O=C(O)CCCNC(=O)Cc1cc(C(=O)O)ccc1OCCCc1ccc(OCCCCOc2ccccc2)cc1` [Example 13, 3-{2-[(3-Carboxypropyl)amino]-2-oxoethyl}-4-{3-[4-(4-phenoxybutoxy)phenyl]propoxy}benzoic acid], the concentration for half-maximal inhibition (IC50) at human CysLT2 receptor was 140 nM; on human CysLT1 receptor, greater than 10000 nM.
